From patent US20130096054A1, “LATENT HUMAN IMMUNODEFICIENCY VIRUS REACTIVIATION” (priority 2010, published 2013) come the findings set out here.

Where two headings read alike, the source gives them in different places. Where a SMILES comes first, the peptide text is derived from it. The star is where a group is joined. Cbz = O=C(OCc1ccccc1)*

The subject of series [1] is latently HIV-1 infected CA5 T cells. The conditions noted are these: for priming effect on HIV-1 reactivation by sub-optimal dose of HRF: pretreatment with increasing concentrations, then sub-optimal HRF. The method, then:
CA5 T cells were pretreated with increasing concentrations of dactinomycin (DM) (FIG. 11A), the DNA intercalator daunorubicin (DR) (FIG. 11B), or the transcription inhibitors DRB (FIG. 11 C) and α-amanitin (FIG. 11D) (concentrations indicated). The cells were then left unstimulated (white circles) or activated with a sub-optimal concentration of HRF (black circles). Reactivation levels were determined as the percentage of GFP-positive cells 24 hours after stimulation. Viability of the cells correlates with the size of the symbol (size range adjusted to 5-95%).
Infection levels in the cell cultures were monitored by flow cytometric analysis of EGFP expression. Flow cytometric analysis was performed on a GUAVA EasyCyte (Millipore; Billerica, Mass.), or a LSRII (Becton & Dickinson; Franklin Lakes, N.J.).
Bacteria from various sources were isolated on TSA II agar plates containing 5% sheep blood. Bacterial isolates were then grown in RPMI 1640 medium supplemented with 10% FBS. After two days of incubation at 37° C. bacteria were pelleted and resuspended in RPMI medium to an optical density (OD600) of 8, aliquoted and frozen at −80° C. Unless otherwise indicated, Massilia timonae was grown in RPMI 1640 medium supplemented with 10% FBS. Typically, medium was inoculated with Massilia timonae from frozen stocks to an OD600 of 0.01. After 48 hours at 37° C., the culture was centrifuged at 3200 g to separate bacteria from the culture medium. Bacteria were resuspended in fresh medium to an OD600 of 8 and frozen to be used as references and stock cultures. The supernatant was then centrifuged at 10,000 g for 20 minutes and sterilized by passage through an 0.2 μm PVDF filter with low protein binding ability. HRF activity was determined by its ability to reactivate latent HIV-1 infection in CA5 cells. Only supernatants of which 6 μl reactivated infection in at least 60% of CA5 cells were used to study HRF properties.
(§1) Infection levels in the cell cultures were monitored by flow cytometric (FCM) analysis of GFP expression. FCM analysis was performed on a GUAVA EasyCyte (GUAVA Technologies, Inc.; Millipore; Billerica, Mass.) and a BD FACSCalibur or a LSR11 (Becton & Dickinson; Franklin Lakes, N.J.). Cell sorting experiments were performed using a FACSAria™ Flow Cytometer (Becton&Dickinson). Data analysis was performed using either CellQuest (Becton&Dickinson) or GUAVA Express (GUAVA Technologies, Inc.).
To identify the optimal concentration of dactinomycin, CA5 T cells were pretreated with increasing concentrations of dactinomycin (0.0001 and 1 μg/ml), and then left untreated or stimulated with a sub-optimal concentration of HRF or TNF-α. […] Twenty four hours after activator addition, levels of HIV-1 reactivation were determined as the percentage of GFP-positive cells using flow cytometric analysis, which allowed for the simultaneous determination of cell viability.

The subject of series [2] is chronically actively infected T cell lines JNLG#35 and JNLG#44. The experiment in a line: Active HIV-1 transcription in chronically actively infected GFP-reporter T cells (GFP MCF). The format is cell-based. Conditions: 48 hours after addition. As to the method: Changes in HIV-1 transcription levels were determined after 48 hours by measuring GFP mean channel fluorescence intensity (GFP MCF). GFP MCF was plotted over the drug concentration for dactinomycin (FIG. 12A), the DNA intercalators daunorubicin (DM) (FIG. 12B) and rebeccamycin (RM) (FIG. 12C), as well as the transcription inhibitors ICRF-193 (FIG. 12D), DRB (FIG. 12E) and α-amanitin (FIG. 12F). The size of symbols indicates the respective cell viability in the sample (size range adjusted to 5-95%).
For this purpose, each of the compounds was titrated over a relevant range of concentrations on two chronically actively infected T cell lines (JNLG#35 and JNLG#44). These clonal cell lines are infected with a GFP-reporter virus. Forty eight hours after addition of the compounds, the effect of each compound on HIV-1 transcription was determined by flow cytometric analysis quantifying GFP mean channel fluorescence intensity (MCF).

Series [3] has as its system HIV-1 LTR (integrated LTR-EGFP construct, NOMI cells). The experiment in a line: Tat-independent activation of integrated LTR-GFP construct in NOMI reporter T cells. Conditions: 24 hours. The format is cell-based. The method, then:
(§2) FIGS. 6A-6C show HRF triggers suboptimal functional induction of NF-κB dependent gene expression. […] The HIV-1 reactivating kinetics were determined by stimulating CA5 T cells with optimal concentrations of HRF, phorbol 12-myristate 13-acetate (PMA) and tumor necrosis factor-α (TNF-α) and analyzing HIV-1 reactivation as a function of EGFP-expression over a period of 48 hours. Data for all agents are depicted as the percentage of EGFP-positive cells in the total cell population. […] To test the ability of HRF to mediate Tat-independent activation of the HIV-1 LTR, NOMI cells (HIV-1 reporter cell line with an integrated LTR-EGFP construct) were stimulated with increasing concentrations of PMA (0.01-10 ng/ml), TNF-α (0.003-30 μg/ml) and HRF supernatant (0.3-100 μl). The level of LTR-induction was then measured as EGFP-expression detectable after 24 hours as determined by flow cytometric analysis. Arrows indicate the concentrations at which the respective stimulus would have triggered full HIV-1 reactivation in the latently HIV-1 infected CA5 T cell line. […] 293T cells were transfected with several NF-κB dependent promoter constructs and then stimulated with either TNF-α (10 μg/ml) or HRF (25 μl). Promoter induction was measured as total EGFP expression. […]

In series [4] the test system is NF-κB dependent promoters in 293T cells. The series can be described thus: NF-κB dependent promoter GFP constructs transfected into 293T cells. The series is classed as cell-based. The method, then: as §2
In series [5] the test system is latently HIV-1 infected J89GFP T cells. The experiment in a line: HIV-1 reactivation in latently HIV-1 infected J89GFP T cells (flow cytometry / HTS). The format is cell-based. Conditions: 10 ng/ml PMA, three J89GFP populations. As to the method:
as §1

Series [6] concerns latently HIV-2 infected J2574 reporter T cells (HIV-2 7312A). The experiment in a line: Reactivation of latent HIV-2 infection in J2574 reporter T cells. The format is cell-based. Conditions: GFP-negative sorted population.
Protocol: J2574 reporter T cells were infected with HIV-2 7312A and a latently infected cell population was established (>90% latently infected cells). The cell population was then pretreated with varying concentrations of dactinomycin (0-8 ng/ml) for 18 hours and then either left untreated (C) or stimulated with a sub-optimal dose of HRF, which by itself triggered reactivation in 10% of the cells. Reactivation levels were determined 24 hours post HRF activation by quantifying the level of GFP-positive cells using flow cytometric analysis.
J2574 reporter T cells were generated by retrovirally transducing Jurkat T cells with a HIV-1 reporter construct (p2574) in which the HIV-1 LTR controls the expression of GFP. The HIV-1 LTR and the GFP gene are separated by a 2,500 base pair (bp) spacer element. Lentiviral particles were produced by transfecting 293T cells with p2574 and supplying gag-pol-rev-tat in trans. VSV-G was used as viral envelope protein. Following lentiviral transduction of Jurkat cells, all cells that spontaneously expressed GFP were removed by cell sorting. The GFP-negative population was then activated with PMA to identify all cells that would harbor an inducible LTR-GFP-LTR integration event. Cells that turned GFP-positive following stimulation were again selected by cell sorting. GFP expression in this population ceased after a few days leaving a population of GFP-negative reporter cells. The amount of founder cells for this population is calculated to represent >50,000 individual integration events.
To determine the ability of dactinomycin to prime a latent HIV-2 infection, a latently HIV-2 infected population of GFP reporter T cells were tested. Briefly, to create the latent HIV-2 infected population, J2574 reporter cells were infected with HIV-2 7312A and a population of latently HIV-2 infected cells was generated by removing the actively infected, GFP-positive cells using a fluorescence activated cell sorter.

For the molecule `CO[C@H]1[C@H](O)[C@@H](O)[C@H](n2c3c(Cl)cccc3c3c4c(c5c6cccc(Cl)c6[nH]c5c32)C(=O)NC4=O)O[C@@H]1CO` [rebeccamycin], the “priming effect on HIV-1 reactivation by sub-optimal dose of HRF” value (“priming effect on HIV-1 reactivation” for short) in series [1] is recorded as “not reproduced”. Moreover, the “effect on active HIV-1 infection / transcription (GFP MCF)” value in series [2] is reported as “boosted active HIV-1 transcription”.
Consider `O=C1[O][Pt]2([NH][C@@H]3CCCC[C@H]3[NH]2)[O]C1=O` [oxaliplatin], for which the “priming effect on HIV-1 reactivation” value in series [1] is given as “not reproduced”.
In series [1] (HMBA alone, compared to TNF-α, PMA or HRF), `CC(=O)NCCCCCCNC(C)=O` [HMBA, Hexamethylene bisacetamide] came in with a reactivation levels below 40%. Besides, the “cells with reactivated HIV-1” value was 15% in series [1] (HMBA at 3 mM) and 35% in series [1] (HMBA at 9 mM). For the same molecule, the compound toxicity result in series [1] (HMBA at 9 mM) is given as “onset of compound toxicity”. Besides, the reactivation came to 81% in series [1] (combination of HMBA and TNF-α); 27% in series [1] (optimal dose of HMBA alone). Also, the “priming of latent HIV-1 infection for reactivation by sub-optimal TNF-α” value in series [1] (sub-toxic concentrations) is listed as “relatively potent at priming latent HIV-1 infection for full reactivation”. Moreover, the “optimal concentration as HIV-1 priming agent, prior to onset of drug mediated toxicities” value in series [1] (titration on CA5 T cells) lay in the range of 3 to 10 mM.
With `CC(C)C[C@@H](C=O)NC(=O)[C@H](CC(C)C)NC(=O)[C@H](CC(C)C)NC(=O)OCc1ccccc1` [MG132] (Cbz-Leu-Leu-Leu-aldehyde), the “priming effect on HIV-1 reactivation” value in series [1] is “did not exhibit any priming effect”.
Still for that read-out and setting: the same measure for `CC[C@@]1(O)C[C@H](O[C@H]2C[C@H](N(C)C)[C@H](O[C@H]3C[C@H](O)[C@H](O[C@H]4CCC(=O)[C@H](C)O4)[C@H](C)O3)[C@H](C)O2)c2c(cc3c(c2O)C(=O)c2c(O)cccc2C3=O)[C@H]1C(=O)OC` [aclacinomycin]: “strong priming effect”.
On to `CC[C@H](C)[C@@H]1NC(=O)CNC(=O)[C@@H]2Cc3c([nH]c4cc(O)ccc34)[S+]([O-])C[C@@H](NC(=O)CNC1=O)C(=O)N[C@@H](CC(N)=O)C(=O)N1C[C@H](O)C[C@H]1C(=O)N[C@@H]([C@@H](C)[C@@H](O)CO)C(=O)N2` (stereo in doubt) [α-amanitin], for which, in series [1], the “cytotoxicity at higher concentrations” value is “high levels of cytotoxicity”, the “effect of higher concentrations on HIV-1 reactivation triggered by HRF or TNF-α” value is “inhibit HIV-1 reactivation” and the “priming effect on HIV-1 reactivation” value is “None of the inhibitors exerted a priming effect”. The “priming effect on HIV-1 reactivation” value in series [1] (listed as α-aminitin) is “did not exhibit any priming effect”.
On to TNF-α, for which the reactivation in series [1] (sub-optimal dose of TNF-α alone) is 32%. For the same molecule, in series [3], the “Tat-independent activation of integrated LTR-GFP construct (GFP expression)” value was “stimulated Tat-independent activation of the integrated LTR-GFP construct”. Further, in series [4] (TNF-α 10 μg/ml or HRF 25 μl), the “GFP expression driven by NF-κB responsive promoter constructs (IL-8, TNF-α, HIV-1 LTR, three consensus NF-κB sites)” value is “efficiently induced”. Moreover, the “GFP expression of construct under murine stem cell virus LTR (no NF-κB responsive element)” value in series [4] (control construct) is “Neither TNF-α nor HRF influenced GFP expression”.
As to `CCCCCCCCCCCCCC(=O)O[C@@H]1[C@@H](C)[C@@]2(O)[C@@H](C=C(CO)C[C@]3(O)C(=O)C(C)=C[C@@H]23)[C@@H]2C(C)(C)[C@]12OC(C)=O` [PMA, 13-phorbol-12-myristate acetate], the “maximum achievable HIV-1 reactivation levels” value in series [5] was found to be 90±3%. Moreover, the “cells latently infected as revealed by PMA stimulation” value in series [6] is above 90%. For the same molecule, the “Tat-independent activation of integrated LTR-GFP construct (GFP expression)” value in series [3] was “stimulated Tat-independent activation of the integrated LTR-GFP construct”.
`CC[C@@]1(O)C(=O)OCc2c1cc1n(c2=O)Cc2cc3ccccc3nc2-1` [camptothecin]: the “priming effect on HIV-1 reactivation” value in series [1] is recorded as “None of the inhibitors exerted a priming effect”.
As for `OC[C@H]1O[C@@H](n2cnc3cc(Cl)c(Cl)cc32)[C@H](O)[C@@H]1O` [DRB, 5,6 dichloro-beta-D-ribofuranosylbenzimidazole], in series [1], the “cytotoxicity at higher concentrations” value was “high levels of cytotoxicity” and the “effect of higher concentrations on HIV-1 reactivation triggered by HRF or TNF-α” value is listed as “inhibit HIV-1 reactivation”.
Regarding `COc1cccc2c1C(=O)c1c(O)c3c(c(O)c1C2=O)C[C@@](O)(C(C)=O)C[C@@H]3O[C@H]1C[C@H](N)[C@H](O)[C@H](C)O1` [daunorubicin], the “effect on active HIV-1 infection / transcription (GFP MCF)” value in series [2] is “boosted active HIV-1 transcription”.
